Assay results reported in US7511077B2, “Diamine calcium channel blockers” (Neuromed Pharmaceuticals Ltd., priority 2005, dated 2009).
Where two headings read alike, the source gives them in different places.

Tests used:
[1] = target: T1, rat brain N-type calcium channel subunits (α1B+α2δ+β1b cDNA subunits) (Rattus norvegicus, UniProt Q02294); assay: N-type calcium channel block, whole cell patch clamp in HEK 293 cells; type: cell-based; conditions: holding potential −80 mV to +10 mV
T1 construct: expressed in transfected cells; host or cells: HEK 293
Experimental: N-type calcium channel blocking activity was assayed in human embryonic kidney cells, HEK 293, stably transfected with the rat brain N-type calcium channel subunits (α1B+α2δ+β1b cDNA subunits). Alternatively, N-type calcium channels (α1B+α2δ+β1b cDNA subunits), L-type channels (α1C+α2δ+β1b cDNA subunits) and P/Q-type channels (α1A+α2δ+β1b cDNA subunits) were transiently expressed in HEK 293 cells. Briefly, cells were cultured in Dulbecco's modified eagle medium (DMEM) supplemented with 10% fetal bovine serum, 200 U/ml penicillin and 0.2 mg/ml streptomycin at 37° C. with 5% CO2. At 85% confluency cells were split with 0.25% trypsin/1 mM EDTA and plated at 10% confluency on glass coverslips. At 12 hours the medium was replaced and the cells transiently transfected using a standard calcium phosphate protocol and the appropriate calcium channel cDNA's. Fresh DMEM was supplied and the cells transferred to 28° C./5% CO2. Cells were incubated for 1 to 2 days prior to whole cell recording.
Whole cell patch clamp experiments were performed using an Axopatch 200B amplifier (Axon Instruments, Burlingame, Calif.) linked to a personal computer equipped with pCLAMP software. The external and internal recording solutions contained, respectively, 5 mM BaCl2, 10 mM MgCl2, 10 mM HEPES, 40 mM TEACl, 10 mM glucose, 87.5 mM CsCl (pH 7.2) and 108 mM CsMS, 4 mM MgCl2, 9 mM EGTA, 9 mM HEPES (pH 7.2). Currents were typically elicited from a holding potential of −80 mV to +10 mV using Clampex software (Axon Instruments). Typically, currents were first elicited with low frequency stimulation (0.067 Hz) and allowed to stabilize prior to application of the compounds. The compounds were then applied during the low frequency pulse trains for two to three minutes to assess tonic block, and subsequently the pulse frequency was increased to 0.2 Hz to assess frequency dependent block. Data were analyzed using Clampfit (Axon Instruments) and SigmaPlot 4.0 (Jandel Scientific).

[2] = target: T2, human α1G T-type channels (Homo sapiens, UniProt O43497); assay: T-type calcium channel block, patch clamp in HEK cell lines; type: cell-based
T2 construct: expressed in transfected cells; host or cells: HEK cell lines
Experimental: Standard patch-clamp techniques were employed to identify blockers of T-type currents. Briefly, previously described HEK cell lines stably expressing human α1G T-type channels were used for all the recordings (passage #: 4-20, 37° C., 5% CO2). To obtain T-type currents, plastic dishes containing semi-confluent cells were positioned on the stage of a ZEISS AXIOVERT S100 microscope after replacing the culture medium with external solution (see below). Whole-cell patches were obtained using pipettes (borosilicate glass with filament, O.D.: 1.5 mm, I.D.: 0.86 mm, 10 cm length), fabricated on a SUTTER P-97 puller with resistance values of ˜5 MΩ (see below for internal solution).
T-type currents were reliably obtained by using two voltage protocols: • (1) “non-inactivating”, and (2) “inactivation”
In the non-inactivating protocol, the holding potential is set at −110 mV and with a pre-pulse at −100 mV for 1 second prior to the test pulse at −40 mV for 50 ms. In the inactivation protocol, the pre-pulse is at approximately −85 mV for 1 second, which inactivates about 15% of the T-type channels.
Test compounds were dissolved in external solution, 0.1-0.01% DMSO. After ˜10 min rest, they were applied by gravity close to the cell using a WPI microfil tubing. The “non-inactivated” pre-pulse was used to examine the resting block of a compound. The “inactivated” protocol was employed to study voltage-dependent block. However, the initial data shown below were mainly obtained using the non-inactivated protocol only. IC50 values are shown for various compounds of the invention in Table 5.

[3] = low frequency stimulation 0.067 Hz (tonic block), read-out: IC50 @ 0.067 Hz
[4] = pulse frequency 0.2 Hz (frequency dependent block), read-out: IC50 @ 0.2 Hz
[5] = non-inactivating protocol, pre-pulse −100 mV (resting block), read-out: IC50 @ −100 mV
[6] = −80 mV (inactivation protocol, voltage-dependent block), read-out: IC50 @ −80 mV

T2 sequence (O43497 whole entry): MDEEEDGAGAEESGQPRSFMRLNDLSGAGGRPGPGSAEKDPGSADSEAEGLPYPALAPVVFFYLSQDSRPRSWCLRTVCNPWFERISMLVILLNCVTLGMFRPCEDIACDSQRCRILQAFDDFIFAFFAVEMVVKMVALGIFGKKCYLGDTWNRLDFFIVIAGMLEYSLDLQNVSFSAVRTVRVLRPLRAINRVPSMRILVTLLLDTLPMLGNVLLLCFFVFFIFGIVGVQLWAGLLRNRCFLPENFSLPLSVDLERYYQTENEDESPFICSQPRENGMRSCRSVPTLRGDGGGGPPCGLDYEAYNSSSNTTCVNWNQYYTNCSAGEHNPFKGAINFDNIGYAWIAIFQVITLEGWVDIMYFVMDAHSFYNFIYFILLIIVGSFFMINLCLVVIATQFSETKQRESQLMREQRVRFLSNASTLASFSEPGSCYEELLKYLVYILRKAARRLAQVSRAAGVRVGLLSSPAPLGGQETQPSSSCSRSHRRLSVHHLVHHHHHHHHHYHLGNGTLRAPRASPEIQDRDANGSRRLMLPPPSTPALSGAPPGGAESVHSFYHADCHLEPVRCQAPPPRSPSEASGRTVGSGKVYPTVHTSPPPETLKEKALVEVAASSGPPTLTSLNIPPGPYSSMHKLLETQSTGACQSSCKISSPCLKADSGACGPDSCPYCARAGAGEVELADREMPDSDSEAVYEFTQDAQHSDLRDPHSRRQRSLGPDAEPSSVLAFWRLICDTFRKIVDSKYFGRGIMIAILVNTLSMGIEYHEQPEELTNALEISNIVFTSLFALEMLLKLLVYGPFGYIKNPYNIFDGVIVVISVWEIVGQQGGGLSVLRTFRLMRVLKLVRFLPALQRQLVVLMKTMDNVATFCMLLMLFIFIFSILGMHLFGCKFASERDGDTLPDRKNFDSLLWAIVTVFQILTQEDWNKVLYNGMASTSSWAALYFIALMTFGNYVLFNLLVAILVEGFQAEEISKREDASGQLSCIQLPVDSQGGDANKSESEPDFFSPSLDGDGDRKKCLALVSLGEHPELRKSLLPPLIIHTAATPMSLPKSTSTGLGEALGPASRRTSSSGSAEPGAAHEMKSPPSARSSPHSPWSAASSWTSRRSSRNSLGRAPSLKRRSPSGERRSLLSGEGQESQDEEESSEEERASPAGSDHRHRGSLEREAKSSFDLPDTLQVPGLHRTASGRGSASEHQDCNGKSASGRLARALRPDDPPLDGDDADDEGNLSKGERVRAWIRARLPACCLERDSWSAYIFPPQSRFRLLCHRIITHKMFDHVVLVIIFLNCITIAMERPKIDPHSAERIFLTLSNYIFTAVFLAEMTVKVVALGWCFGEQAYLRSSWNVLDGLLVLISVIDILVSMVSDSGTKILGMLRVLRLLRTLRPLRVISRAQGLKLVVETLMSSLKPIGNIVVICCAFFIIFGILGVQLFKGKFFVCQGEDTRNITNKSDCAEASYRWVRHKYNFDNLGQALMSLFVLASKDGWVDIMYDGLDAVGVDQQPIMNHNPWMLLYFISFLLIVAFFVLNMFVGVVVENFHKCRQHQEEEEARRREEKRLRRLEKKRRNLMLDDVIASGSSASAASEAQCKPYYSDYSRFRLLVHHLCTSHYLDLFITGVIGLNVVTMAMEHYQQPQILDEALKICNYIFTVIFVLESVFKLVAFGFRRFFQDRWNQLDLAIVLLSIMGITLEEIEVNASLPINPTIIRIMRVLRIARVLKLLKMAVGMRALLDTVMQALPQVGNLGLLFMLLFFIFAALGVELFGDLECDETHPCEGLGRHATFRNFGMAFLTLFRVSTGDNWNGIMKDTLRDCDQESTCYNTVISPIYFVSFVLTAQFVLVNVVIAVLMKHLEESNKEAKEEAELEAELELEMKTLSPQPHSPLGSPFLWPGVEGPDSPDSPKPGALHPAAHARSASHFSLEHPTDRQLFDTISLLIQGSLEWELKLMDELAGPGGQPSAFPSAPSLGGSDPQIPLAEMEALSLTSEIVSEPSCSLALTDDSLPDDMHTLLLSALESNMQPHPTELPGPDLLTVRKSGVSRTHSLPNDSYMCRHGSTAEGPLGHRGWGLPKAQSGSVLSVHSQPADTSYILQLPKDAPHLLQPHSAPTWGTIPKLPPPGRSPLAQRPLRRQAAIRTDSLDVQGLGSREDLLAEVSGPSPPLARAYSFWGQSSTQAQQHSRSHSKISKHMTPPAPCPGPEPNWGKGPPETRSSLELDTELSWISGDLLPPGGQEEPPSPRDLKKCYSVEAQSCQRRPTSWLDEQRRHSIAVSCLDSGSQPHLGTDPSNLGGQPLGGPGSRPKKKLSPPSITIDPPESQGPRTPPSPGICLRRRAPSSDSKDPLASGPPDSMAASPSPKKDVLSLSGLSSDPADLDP
T1 sequence (Q02294 whole entry): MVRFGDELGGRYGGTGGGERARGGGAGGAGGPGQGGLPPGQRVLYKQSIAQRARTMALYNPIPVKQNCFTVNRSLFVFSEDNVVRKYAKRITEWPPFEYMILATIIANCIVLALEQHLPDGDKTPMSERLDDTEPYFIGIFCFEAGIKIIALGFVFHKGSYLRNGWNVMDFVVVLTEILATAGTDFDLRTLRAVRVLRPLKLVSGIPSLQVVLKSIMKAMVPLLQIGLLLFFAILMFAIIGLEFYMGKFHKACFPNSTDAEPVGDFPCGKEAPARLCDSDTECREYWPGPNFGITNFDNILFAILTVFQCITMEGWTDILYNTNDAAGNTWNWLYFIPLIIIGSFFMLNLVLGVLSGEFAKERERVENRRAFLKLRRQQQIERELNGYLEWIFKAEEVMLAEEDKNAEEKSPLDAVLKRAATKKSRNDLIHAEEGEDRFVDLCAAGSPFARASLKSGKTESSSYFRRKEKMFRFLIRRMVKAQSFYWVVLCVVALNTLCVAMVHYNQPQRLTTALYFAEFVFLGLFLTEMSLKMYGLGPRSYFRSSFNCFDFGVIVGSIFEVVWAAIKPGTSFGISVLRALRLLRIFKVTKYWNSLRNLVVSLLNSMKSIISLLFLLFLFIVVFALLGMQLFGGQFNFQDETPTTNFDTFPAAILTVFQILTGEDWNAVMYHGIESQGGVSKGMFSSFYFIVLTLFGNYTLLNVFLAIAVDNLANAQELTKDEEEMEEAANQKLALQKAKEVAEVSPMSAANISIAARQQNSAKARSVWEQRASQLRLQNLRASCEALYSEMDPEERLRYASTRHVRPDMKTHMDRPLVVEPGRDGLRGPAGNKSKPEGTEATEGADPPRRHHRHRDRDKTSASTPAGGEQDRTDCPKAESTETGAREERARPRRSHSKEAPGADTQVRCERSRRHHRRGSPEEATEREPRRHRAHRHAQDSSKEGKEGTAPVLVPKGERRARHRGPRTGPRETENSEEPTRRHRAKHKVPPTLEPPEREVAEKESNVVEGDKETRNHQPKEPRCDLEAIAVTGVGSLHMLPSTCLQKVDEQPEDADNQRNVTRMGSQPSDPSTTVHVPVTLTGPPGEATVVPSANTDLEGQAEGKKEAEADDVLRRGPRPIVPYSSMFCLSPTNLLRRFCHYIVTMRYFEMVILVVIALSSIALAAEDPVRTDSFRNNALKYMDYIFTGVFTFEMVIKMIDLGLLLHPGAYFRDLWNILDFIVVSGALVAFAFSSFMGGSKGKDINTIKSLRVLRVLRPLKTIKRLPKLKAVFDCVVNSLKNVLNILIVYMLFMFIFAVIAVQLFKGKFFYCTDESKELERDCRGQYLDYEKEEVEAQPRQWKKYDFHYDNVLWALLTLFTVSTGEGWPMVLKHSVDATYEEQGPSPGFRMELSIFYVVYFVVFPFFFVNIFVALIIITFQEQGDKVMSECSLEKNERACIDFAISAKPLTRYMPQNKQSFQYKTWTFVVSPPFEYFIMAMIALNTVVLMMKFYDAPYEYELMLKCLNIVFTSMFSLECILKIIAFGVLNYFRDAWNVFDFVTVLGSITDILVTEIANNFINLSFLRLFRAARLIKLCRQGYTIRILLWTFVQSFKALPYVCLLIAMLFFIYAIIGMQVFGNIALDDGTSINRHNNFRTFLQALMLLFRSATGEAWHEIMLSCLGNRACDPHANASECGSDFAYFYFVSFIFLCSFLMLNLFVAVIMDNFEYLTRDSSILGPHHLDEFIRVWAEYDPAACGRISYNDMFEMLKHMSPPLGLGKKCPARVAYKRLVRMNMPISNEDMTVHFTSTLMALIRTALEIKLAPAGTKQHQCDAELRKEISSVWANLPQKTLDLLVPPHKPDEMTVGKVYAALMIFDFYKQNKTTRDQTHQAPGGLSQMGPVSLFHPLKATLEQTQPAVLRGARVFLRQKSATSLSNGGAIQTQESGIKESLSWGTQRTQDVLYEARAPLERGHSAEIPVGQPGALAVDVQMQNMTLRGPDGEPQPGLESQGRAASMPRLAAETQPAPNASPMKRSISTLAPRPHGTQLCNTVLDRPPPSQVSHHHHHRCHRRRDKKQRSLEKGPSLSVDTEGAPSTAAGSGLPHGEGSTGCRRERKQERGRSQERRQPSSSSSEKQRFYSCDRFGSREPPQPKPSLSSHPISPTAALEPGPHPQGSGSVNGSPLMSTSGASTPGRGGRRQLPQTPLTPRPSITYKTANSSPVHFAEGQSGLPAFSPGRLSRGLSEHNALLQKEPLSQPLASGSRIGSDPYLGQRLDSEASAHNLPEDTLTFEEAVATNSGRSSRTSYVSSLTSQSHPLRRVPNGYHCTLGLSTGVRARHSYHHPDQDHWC

IC50 [1, 3]	IC50 [1, 4]	IC50 [2, 5]	IC50 [2, 6]	SMILES
230 nM	190 nM	–	–	COc1cc(C(=O)NC/C=C\CNC(=O)CCCCC(c2ccc(F)cc2)c2ccc(F)cc2)cc(OC)c1OC [Compound P1, N-{(Z)-4-[6,6-Bis-(4-fluoro-phenyl)-hexanoylamino]-but-2-enyl}-3,4,5-trimethoxy-benzamide]
430 nM	310 nM	–	–	COc1c(C(C)(C)C)cc(C(=O)NC/C=C\CNC(=O)CCCCC(c2ccc(F)cc2)c2ccc(F)cc2)cc1C(C)(C)C [Compound P2, N-{(Z)-4-[6,6-Bis-(4-fluoro-phenyl)-hexanoylamino]-but-2-enyl}-3,5-di-tert-butyl-4-methoxy-benzamide]
470 nM	270 nM	–	–	CC(C)(C)c1cc(C(=O)NC/C=C\CNC(=O)CCCCC(c2ccc(F)cc2)c2ccc(F)cc2)cc(C(C)(C)C)c1O [Compound P3, N-{(Z)-4-[6,6-Bis-(4-fluoro-phenyl)-hexanoylamino]-but-2-enyl}-3,5-di-tert-butyl-4-hydroxy-benzamide]
97 nM	54 nM	196 nM	56 nM	CC(C)c1ccc(C(=O)NC/C=C\CNC(=O)CCCCC(c2ccc(F)cc2)c2ccc(F)cc2)cc1 [Compound P7, N-{(Z)-4-[6,6-Bis-(4-fluoro-phenyl)-hexanoylamino]-but-2-enyl}-4-isopropyl-benzamide]
331 nM	196 nM	155 nM	51 nM	COc1cc(C(=O)NC/C=C/CNC(=O)CCCCC(c2ccc(F)cc2)c2ccc(F)cc2)cc(OC)c1OC [Compound P11, N-{(E)-4-[6,6-Bis-(4-fluoro-phenyl)-hexanoylamino]-but-2-enyl}-3,4,5-trimethoxy-benzamide]
220 nM	146 nM	112 nM	34 nM	COc1c(C(C)(C)C)cc(C(=O)NC/C=C/CNC(=O)CCCCC(c2ccc(F)cc2)c2ccc(F)cc2)cc1C(C)(C)C [Compound P12, N-{(E)-4-[6,6-Bis-(4-fluoro-phenyl)-hexanoylamino]-but-2-enyl}-3,5-di-tert-butyl-4-methoxy-benzamide]
790 nM	540 nM	–	–	CC(C)(C)c1cc(C(=O)NC/C=C/CNC(=O)CCCCC(c2ccc(F)cc2)c2ccc(F)cc2)cc(C(C)(C)C)c1O [Compound P13, N-{(E)-4-[6,6-Bis-(4-fluoro-phenyl)-hexanoylamino]-but-2-enyl}-3,5-di-tert-butyl-4-hydroxy-benzamide]
510 nM	380 nM	–	–	CC(C)(C)c1ccc(C(=O)NC/C=C/CNC(=O)CCCCC(c2ccc(F)cc2)c2ccc(F)cc2)cc1 [Compound P14, N-{(E)-4-[6,6-Bis-(4-fluoro-phenyl)-hexanoylamino]-but-2-enyl}-4-tert-butyl-benzamide]
52 nM	15 nM	26 nM	7 nM	O=C(CCCCC(c1ccc(F)cc1)c1ccc(F)cc1)NC/C=C/CNC(=O)COc1ccc(Cl)cc1 [Compound P16, 6,6-Bis-(4-fluoro-phenyl)-hexanoic acid{(E)-4-[2-(4-chloro-phenoxy)-acetylamino]-but-2-enyl}-amide]
598 nM	266 nM	7 nM	3 nM	CC(C)c1ccc(C(=O)NC/C=C/CNC(=O)CCCCC(c2ccc(F)cc2)c2ccc(F)cc2)cc1 [Compound P17, N-{(E)-4-[6,6-Bis-(4-fluoro-phenyl)-hexanoylamino]-but-2-enyl}-4-isopropyl-benzamide]
809 nM	305 nM	149 nM	39 nM	O=C(CCCCC(c1ccc(F)cc1)c1ccc(F)cc1)NC/C=C/CNC(=O)c1ccc(Cl)cc1 [Compound P18, N-{(E)-4-[6,6-Bis-(4-fluoro-phenyl)-hexanoylamino]-but-2-enyl}-4-chloro-benzamide]
182 nM	132 nM	22 nM	9 nM	Cc1ccc(C(=O)NC/C=C/CNC(=O)CCCCC(c2ccc(F)cc2)c2ccc(F)cc2)cc1 [Compound P19, N-{(E)-4-[6,6-Bis-(4-fluoro-phenyl)-hexanoylamino]-but-2-enyl}-4-methyl-benzamide]
188 nM	134 nM	126 nM	43 nM	O=C(CCCCC(c1ccc(F)cc1)c1ccc(F)cc1)NC/C=C/CNC(=O)c1ccc(F)cc1 [Compound P20, N-{(E)-4-[6,6-Bis-(4-fluoro-phenyl)-hexanoylamino]-but-2-enyl}-4-fluoro-benzamide]
514 nM	278 nM	423 nM	163 nM	O=C(CC(c1ccccc1)c1ccccc1)NC/C=C/CN(Cc1ccncc1)Cc1ccncc1 [Compound P21, N-[(E)-4-(Bis-pyridin-4-ylmethyl-amino)-but-2-enyl]-3,3-diphenyl-propionamide]
237 nM	139 nM	358 nM	78 nM	COc1cc(C(=O)NCC#CCNC(=O)CCCCC(c2ccc(F)cc2)c2ccc(F)cc2)cc(OC)c1OC [Compound P22, N-{4-[6,6-Bis-(4-fluoro-phenyl)-hexanoylamino]-but-2-ynyl}-3,4,5-trimethoxy-benzamide]
770 nM	760 nM	1000 nM	424 nM	CC(C)c1ccc(C(=O)NCC#CCNC(=O)CCCCC(c2ccc(F)cc2)c2ccc(F)cc2)cc1 [Compound P25, N-{4-[6,6-Bis-(4-fluoro-phenyl)-hexanoylamino]-but-2-ynyl}-4-isopropyl-benzamide]
340 nM	330 nM	82 nM	21 nM	O=C(CC(c1ccccc1)c1ccccc1)NCC#CCN(Cc1ccncc1)Cc1ccncc1 [Compound P30, N-[4-(Bis-pyridin-4-ylmethyl-amino)-but-2-ynyl]-3,3-diphenyl-propionamide]
420 nM	420 nM	94 nM	27 nM	O=C(CC(c1ccccc1)c1ccccc1)NCC#CCN(Cc1cccnc1)Cc1cccnc1 [Compound P31, N-[4-(Bis-pyridin-3-ylmethyl-amino)-but-2-ynyl]-3,3-diphenyl-propionamide]
291 nM	165 nM	177 nM	141 nM	CC(C)(C)c1ccc(C(=O)NCCCCNC(=O)CCCCC(c2ccc(F)cc2)c2ccc(F)cc2)cc1 [Compound P34, N-{4-[6,6-Bis-(4-fluoro-phenyl)-hexanoylamino]-butyl}-4-tert-butyl-benzamide]
39 nM	10 nM	63 nM	29 nM	O=C(CCCCC(c1ccc(F)cc1)c1ccc(F)cc1)NCCCCNC(=O)COc1ccc(Cl)cc1 [Compound P36, 6,6-Bis-(4-fluoro-phenyl)-hexanoic acid{4-[2-(4-chloro-phenoxy)-acetylamino]-butyl}-amide]
